In patent US6610289B2, “Mutated herpes simplex virus type 1 thymidine kinases and uses thereof” (The Board of Trustees of the University of Arkansas, priority 1998, dated 2003):

Columns and labels:
HCT-116 cells [1] = test: Clonal dilution assay for GCV sensitivity; assay type: cell-based, human; conditions: for Decrease in cell colony numbers: 24 hours, FIG. 4
Procedure: Parental HCT-116 (large square), wild-type HSV-1 TK cells (triangle), Asn-125TK cells (small square) and Glu-125TK cells (diamond) were treated with 0, 0.1, 1 or 10 μM GCV in triplicate for 24 hours. After this time, each well of cells was sequentially diluted from 1:10 to 1:10,000 in 1 ml of fresh media on a separate 24 well plate. After 7 days, surviving cell colonies were fixed in 100% methanol, stained with 0.1% methylene blue and counted.
For determination of GCV sensitivity, parental HCT-116 and each HSV-1 TK expressing cells were seeded in 24 well plates (2×10^5/well) in 1 ml of media. The next day, 0, 0.1, 1 or 10 μM GCV was added to each cell line in triplicate. After 24 hours, for each well the media was removed, cells were rinsed twice in fresh media, trypsinized, then media was added to 1 ml per well. Each well of cells was then sequentially diluted from 1:10 to 1:10,000 in 1 ml of fresh media on a separate 24 well plate. After 7 days, surviving cell colonies were fixed in 100% methanol, stained with 0.1% methylene blue and counted. For bystander effect assays, each of the three HSV-1 TK expressing cell lines were plated with parental HCT-116 cells (total 2×10^5/well) in the following proportions: (parental: HSV-1TK cells) 100%:0; 95%:5%; 90%:10%; 75%:25%; 50%:50% and 0:100%. After two days, 25 μM GCV was added in 1 ml fresh media. After 24 hrs, the media was removed and cells from each well were diluted from 1:10 to 1:10,000 as described above. After 7 days, surviving cell colonies were fixed and stained for counting.
Cells previously plated in 24 well plates were treated with GCV (0-10 μM) in triplicate for 24 hours. Following drug removal, cells were diluted and replated in fresh media from dilutions of 1:10 to 1:10,000. Surviving cell colonies were counted 6-7 days later.

HCT-116 cells [2] = test: DAPI-staining of apoptotic cells; assay type: cell-based, human; conditions: 25 μM GCV, 36 or 84 hrs, FIG. 7
Procedure: The HCT-116 cells expressing wild-type HSV-1 TK (FIG. 7A), Asn-125TK (FIG. 7B), or Glu-125TK (FIG. 7C) were grown on chamber slides and incubated with 25 μM GCV for 36 or 84 hours. Control cultures for each cell line without GCV addition (top row) were evaluated after 84 hours. At the indicated time point, cells were fixed in methanol, stained with DAPI, and nuclei visualized by fluorescent microscopy. Each image is magnified 40×.
Parental HCT-116 cells and each HSV-1 TK expressing cell line were plated (5×10^4 cells/well) in 8-well plastic chamber slides (Lab-Tek) and treated plus or minus 25 mM GCV for 36 or 84 hrs. At either time point, cells were washed with phosphate-buffered saline followed by staining in 1 μg/ml DAPI (4′,6′-diamidine-2′-phenylindoledihydrochloride) in 100% methanol at 37° C. for 10 min. After rinsing, the stained cells were visualized with a Zeiss flourescent microscope at 40× magnification with a DAPI-specific filter.

NIH3T3 cells = test: Metabolic labeling with [^3H]GCV, NIH3T3 cell clones; assay type: cell-based, murine; conditions: 3T3
Procedure: For metabolic labeling, cells (1-2×10^6) were labeled in triplicate with 2 μCi [^3H]GCV ([…]) for 18 hours, then nucleotides were extracted from pelleted cells in 0.2 ml 70% methanol at 4° C. for 15 minutes as previously described (21, 24). An aliquot of each methanol soluble supernatant was analyzed for radioactivity by scintillation counting. The methanol insoluble pellets, representative of a crude DNA fraction, were resuspended in 0.15 ml water and also counted for radioactivity. For deoxpyrimidines, cells were grown to confluency in 60 cm^2 plates, and either 2 μCi [^3H]thymidine (2 μM final) or 2 μCi [^3H]dC (10 μM final) were added for 1 or 2 hours respectively prior to extraction in 70% methanol. Methanol-soluble extracts were concentrated by evaporation under nitrogen, and separated on PEI-cellulose thin layer chromatography plates developed in 0.8 M LiCl for GCV or 0.35 M LiCl for thymidine/dC as previously described (21).
NIH3T3 fibroblasts and the human tumor cell line HCT-116 were transfected with wild-type HSV-1TK or with one of three site specific mutants of amino acid Gln-125. From a panel of multiple HSV-1TK expressing clones, a subset of clones from each cell line expressing wild-type HSV-1 TK, the Asn-125 HSV-1 TK mutant (Asn-125TK) and the Glu-125 HSV-1 TK mutant (Glu-125TK) were selected for comparatively equivalent levels of HSV-1 TK protein expression based on Western blot determinations. In this study, these two sets of HSV-1 TK-expressing NIH 3T3 and HCT-116 cell lines were evaluated for intracellular metabolism of [^3H]GCV, [^3H]thymidine, or [^3H]dC. Cells were labeled with [^3H]GCV for 18 hours, then nucleotides were extracted in ice-cold 70% methanol as previously described (21, 24). The data in Table 3 summarize the amount of total nucleotide metabolites isolated in the methanol-soluble extracts (pmol/10^6 cells) as well as the total amount of methanol-insoluble metabolites representative of incorporation into DNA. The Asn-125TK metabolizes GCV at (or near) equal levels to the wild-type HSV-TK in both cell lines. The methanol-insoluble data, while only a crude indicator of [^3H]GCV incorporation into DNA, reflects the numbers obtained with the soluble extracts. As compared with the non-HSV-TK-expressing HCT-116 cells and consistent with data in the previous study (24), minimal [^3H]GCV metabolism was detected in the Asp-125TK cells and these cells were not further evaluated.
The methanol-soluble metabolites were further separated into their constituent phosphorylated GCV metabolites by thin layer chromatography (21). As presented in Table 4, the predominant metabolite in each HSV-TK-expressing cell line was GCVTP. In both HCT-116 and NIH3T3 cell lines, the Asn-125TK cells indicated slightly higher levels of GCVTP as compared to wild-type HSV-1 TK cell lines. […] This difference in the levels of GCVTP in the two Glu-125TK expressing cell lines could explain the lack of sensitivity to GCV killing observed for the NIH3T3 Glu-125TK cell lines.

Substance | Decrease in cell colony numbers (HCT-116 cells [1]; 0.1 μM GCV) | Decrease in cell colony numbers (HCT-116 cells [1]; 10 μM GCV) [log] | Nuclear morphology of DAPI-stained nuclei after GCV (HCT-116 cells [2]) | Phosphorylated metabolite GCVDP (NIH3T3 cells) [pmol/10^6 cells] | Phosphorylated metabolite GCVMP (NIH3T3 cells) [pmol/10^6 cells] | Phosphorylated metabolite GCVTP (NIH3T3 cells) [pmol/10^6 cells] | Decrease in cell colony numbers (HCT-116 cells [1]; 1 μM GCV) [log] | Reduction in cell colony numbers (HCT-116 cells [1]; 20-110 μM GCV (data not shown))
Asn-125 | 2 log | 4 | progressive increases in condensed and fragmented nuclei characteristic of apoptosis | 21 | 11 | 272 | – | –
Gln-125 (WT): wild-type herpes simplex virus type 1 thymidine kinase with glutamine at position 125, parent enzyme [reference compound] | 2 log | 4 | progressive increases in condensed and fragmented nuclei characteristic of apoptosis | 22 | 12 | 232 | – | –
Glu-125 | no reduction | 2.5 | fewer swelled nuclei and little evidence of apoptotic nuclei | 0 | 0 | 1.6 | 0.7 | over 3 log
